Results reported in patent US20220241249A1, “PHARMACEUTICAL COMPOSITION AND KIT CONTAINING NOVEL PENAM DERIVATIVE OR SALT THEREOF AND ONE OR MORE COMPOUNDS SELECTED FROM beta-LACTAMASE INHIBITORY COMPOUND AND ANTIBACTERIAL COMPOUND OR SALTS THEREOF” (priority 2019, published 2022).
In brackets after ≈: the same amount, converted by molar mass.

Columns and labels:
Assay in all cases: Antibacterial activity evaluation test, MIC by broth microdilution (CLSI)
Type in all cases: cell-based
[1] = test system: CTX-M-15-containing Escherichia coli strain (TK-1747); conditions: for MIC: Escherichia coli
Experimental: (§1) The minimum inhibitory concentration (MIC) was measured according to the Clinical and Laboratory Standards Institute (CLSI) standard method by using the following broth microdilution method.
(§2) As bacteria, a Pseudomonas aeruginosa strain ATCC27853, an AmpC-derepressed Pseudomonas aeruginosa mutant strain (S-3028), an IMP-1-containing Pseudomonas aeruginosa strain (S-2838), a VIM-2-containing Pseudomonas aeruginosa strain (S-3779), a GES-19 and GES-20-containing Pseudomonas aeruginosa strain (S-3759), a CTX-M-15-containing Escherichia coli strain (TK-1747), a KPC-2-containing Klebsiella pneumoniae strain (Y-995), an OXA-48-containing Klebsiella pneumoniae strain (Y-1062), and an NDM-1-containing Klebsiella pneumoniae strain (Y-1007) were used. The test bacterial cells that had been cultured overnight on a Mueller Hinton agar medium were scraped off, suspended at a density equivalent to 0.5 McFarland standard, and diluted 10-fold, thereby obtaining an inoculum. A cation-adjusted Mueller Hinton medium containing a test compound was inoculated with 0.005 mL of the inoculum, and the cells were cultured at 35° C. for 16 to 20 hours. The minimum drug concentration at which the growth of bacteria was not visually observed was defined as MIC (μg/mL).
(§3) An antibacterial activity evaluation test was performed in the same manner as in Test Example 1.

[2] = test system: GES-19 and GES-20-containing Pseudomonas aeruginosa strain (S-3759); conditions: for MIC: Pseudomonas aeruginosa
Experimental: as §1, §2, §3

[3] = test system: VIM-2-containing Pseudomonas aeruginosa strain (S-3779); conditions: for MIC: Pseudomonas aeruginosa
Experimental: as §1, §2, §3

[4] = test system: OXA-48-containing Klebsiella pneumoniae strain (Y-1062); conditions: for MIC: Klebsiella pneumoniae
Experimental: as §1, §2, §3

[5] = test system: AmpC-derepressed Pseudomonas aeruginosa mutant strain (S-3028); conditions: for MIC: Pseudomonas aeruginosa
Experimental: as §1, §2, §3

[6] = test system: IMP-1-containing Pseudomonas aeruginosa strain (S-2838); conditions: for MIC: Pseudomonas aeruginosa
Experimental: as §1, §2, §3

[7] = test system: KPC-2-containing Klebsiella pneumoniae strain (Y-995); conditions: for MIC: Klebsiella pneumoniae
Experimental: as §1, §2, §3

[8] = test system: Pseudomonas aeruginosa strain ATCC27853; conditions: Pseudomonas aeruginosa, ATCC27853
Experimental: as §1, §2, §3

[9] = test system: NDM-1-containing Klebsiella pneumoniae strain (Y-1007); conditions: for MIC: Klebsiella pneumoniae
Experimental: as §1, §2, §3

Structure (SMILES) | MIC [1] [µg/mL] | MIC [2] [µg/mL] | MIC [3] [µg/mL] | MIC [4] [µg/mL] | MIC [5] [µg/mL] | MIC [6] [µg/mL] | MIC [7] [µg/mL] | MIC [8] [µg/mL] | MIC [9] [µg/mL] | Antibacterial activity (MIC) Escherichia coli TK-1747 [1] [µg/mL] | Antibacterial activity (MIC) Pseudomonas aeruginosa S-3759 [2] [µg/mL] | Antibacterial activity (MIC) Pseudomonas aeruginosa S-3779 [3] [µg/mL] | Antibacterial activity (MIC) Klebsiella pneumoniae Y-1062 [4] [µg/mL] | Antibacterial activity (MIC) Pseudomonas aeruginosa S-3028 [5] [µg/mL] | Antibacterial activity (MIC) Pseudomonas aeruginosa S-2838 [6] [µg/mL] | Antibacterial activity (MIC) Klebsiella pneumoniae Y-995 [7] [µg/mL] | Antibacterial activity (MIC) Pseudomonas aeruginosa ATCC 27853 [8] [µg/mL] | Antibacterial activity (MIC) Klebsiella pneumoniae Y-1007 [9] [µg/mL]
CC(C)(O/N=C(\C(=O)N[C@@H]1C(=O)N2C[C@@](C(=O)O)(N3CC[C@H](NC(=O)C(=O)c4ccc(O)c(O)c4Cl)C3=O)S[C@H]12)c1csc(N)n1)C(=O)O [Example 84, (3R,5R,6R)-6-((Z)-2-(2-aminothiazol-4-yl)-2-(((2-carboxypropan-2-yl)oxy)imino)acetamido)-3-((S)-3-(2-(2-chloro-3,4-dihydroxyphenyl)-2-oxoacetamido)-2-oxopyrrolidin-1-yl)-7-oxo-4-thia-1-azabicyclo[3.2.0]heptane-3-carboxylic acid] | < 0.06 | 1 (≈ 1.35 µM) | 0.5 (≈ 0.676 µM) | < 0.06 | 0.5 (≈ 0.676 µM) | 0.5 (≈ 0.676 µM) | 0.5 (≈ 0.676 µM) | 0.5 (≈ 0.676 µM) | < 0.06 | – | – | – | – | – | – | – | – | –
CC(C)(O/N=C(\C(=O)N[C@@H]1C(=O)N2C[C@@](C(=O)O)(N3CCN(/N=C/C=N/NC(=O)NCCNC(=O)c4ccc(O)c(O)c4Cl)C3=O)S[C@H]12)c1csc(N)n1)C(=O)O [Example 53, (3R,5R,6R)-6-((Z)-2-(2-aminothiazol-4-yl)-2-(((2-carboxypropan-2-yl)oxy)imino)acetamido)-3-(3-(((1E,2E)-2-(2-((2-(2-chloro-3,4-dihydroxybenzamido)ethyl)carbamoyl)hydrazono)ethylidene)amino)-2-oxoimidazolidin-1-yl)-7-oxo-4-thia-1-azabicyclo[3.2.0]heptane-3-carboxylic acid] | 2 (≈ 2.34 µM) | 2 (≈ 2.34 µM) | 0.5 (≈ 0.586 µM) | 0.5 (≈ 0.586 µM) | 1 (≈ 1.17 µM) | 4 (≈ 4.69 µM) | 2 (≈ 2.34 µM) | 0.5 (≈ 0.586 µM) | 0.12 (≈ 0.141 µM) | – | – | – | – | – | – | – | – | –
Nc1nc(/C(=N/OC2(C(=O)O)CC2)C(=O)N[C@@H]2C(=O)N3C[C@@](C(=O)O)(N4CCN(NC(=O)C(=O)c5ccc(O)c(O)c5Cl)C4=O)S[C@H]23)c(Cl)s1 [Example 76, (3R,5R,6R)-6-((Z)-2-(2-amino-5-chlorothiazol-4-yl)-2-((1-carboxycyclopropoxy)imino)acetamido)-3-(3-(2-(2-chloro-3,4-dihydroxyphenyl)-2-oxoacetamido)-2-oxoimidazolidin-1-yl)-7-oxo-4-thia-1-azabicyclo[3.2.0]heptane-3-carboxylic acid] | 0.06 (≈ 0.0776 µM) | 0.25 (≈ 0.323 µM) | 0.25 (≈ 0.323 µM) | 0.25 (≈ 0.323 µM) | 0.12 (≈ 0.155 µM) | 0.5 (≈ 0.646 µM) | 0.25 (≈ 0.323 µM) | 0.5 (≈ 0.646 µM) | 0.25 (≈ 0.323 µM) | – | – | – | – | – | – | – | – | –
CCC[C@H](O/N=C(\C(=O)NC1C(=O)N2C[C@@](C(=O)O)(N3CCN(NC(=O)C(=O)c4ccc(O)c(O)c4Cl)C3=O)S[C@H]12)c1csc(N)n1)C(=O)O (stereo partly drawn) [Example 115, (3R,5R,6R)-6-((Z)-2-(2-aminothiazol-4-yl)-2-(((S)-1-carboxy-butoxy)imino)aceta-mido)-3-(3-(2-(2-chloro-3,4-dihydroxy-phenyl)-2-oxoaceta-mido)-2-oxoimidazol-idin-1-yl)-7-oxo-4-thia-1-azabicyclo[3.2.0]-heptane-3-carboxylic acid] | 0.25 (≈ 0.331 µM) | 0.5 (≈ 0.662 µM) | 0.5 (≈ 0.662 µM) | 1 (≈ 1.32 µM) | 0.12 (≈ 0.159 µM) | 1 (≈ 1.32 µM) | 0.25 (≈ 0.331 µM) | 0.5 (≈ 0.662 µM) | < 0.06 | – | – | – | – | – | – | – | – | –
CC(C)(O/N=C(\C(=O)NC1C(=O)N2C[C@@](C(=O)O)(N3CCC[C@H](NC(=O)C(=O)c4ccc(O)c(O)c4Cl)C3=O)S[C@H]12)c1csc(N)n1)C(=O)O (stereo partly drawn) [Example 156] | – | – | – | – | – | – | – | – | – | 0.12 | 2 | 1 | 0.5 | 0.5 | 1 | 0.12 | 2 | < 0.06
CC(C)(O/N=C(\C(=O)N[C@@H]1C(=O)N2C[C@@](C(=O)O)(n3nnc(CNC(=O)c4ccc(O)c(O)c4Cl)n3)S[C@H]12)c1csc(N)n1)C(=O)O [Example 141, (3R,5R,6R)-6-((Z)-2-(2-aminothiazol-4-yl)-2-(((2-carboxypropan-2-yl)oxy)imino)acetamido)-3-(5-((2-chloro-3,4-dihydroxybenzamido)methyl)-2H-tetrazol-2-yl)-7-oxo-4-thia-1-azabicyclo[3.2.0]heptane-3-carboxylic acid] | 0.5 (≈ 0.703 µM) | 4 (≈ 5.63 µM) | 1 (≈ 1.41 µM) | 1 (≈ 1.41 µM) | 0.5 (≈ 0.703 µM) | 0.25 (≈ 0.352 µM) | > 32 | 1 (≈ 1.41 µM) | 0.25 (≈ 0.352 µM) | – | – | – | – | – | – | – | – | –
CC(C)(O/N=C(\C(=O)N[C@@H]1C(=O)N2C[C@@](C(=O)O)(N3CC[C@@H](NC(=O)C(=O)c4ccc(O)c(O)c4Cl)C3=O)S[C@H]12)c1csc(N)n1)C(=O)O [Example 85, (3R,5R,6R)-6-((Z)-2-(2-aminothiazol-4-yl)-2-(((2-carboxypropan-2-yl)oxy)imino)acetamido)-3-((R)-3-(2-(2-chloro-3,4-dihydroxyphenyl)-2-oxoacetamido)-2-oxopyrrolidin-1-yl)-7-oxo-4-thia-1-azabicyclo[3.2.0]heptane-3-carboxylic acid] | < 0.06 | 0.25 (≈ 0.338 µM) | 0.25 (≈ 0.338 µM) | 0.12 (≈ 0.162 µM) | 0.12 (≈ 0.162 µM) | 0.25 (≈ 0.338 µM) | < 0.06 | 0.5 (≈ 0.676 µM) | < 0.06 | – | – | – | – | – | – | – | – | –
CC(C)(O/N=C(\C(=O)N[C@@H]1C(=O)N2C[C@@](C(=O)O)(N3CCN(NC(=O)CCNC(=O)C(=O)c4ccc(O)c(O)c4Cl)C3=O)S[C@H]12)c1csc(N)n1)C(=O)O [Example 30, (3R,5R,6R)-6-((Z)-2-(2-aminothiazol-4-yl)-2-(((2-carboxypropan-2-yl)oxy)imino)acetamido)-3-(3-(3-(2-(2-chloro-3,4-dihydroxyphenyl)-2-oxoacetamido)propanamido)-2-oxoimidazolidin-1-yl)-7-oxo-4-thia-1-azabicyclo[3.2.0]heptane-3-carboxylic acid] | 0.25 (≈ 0.308 µM) | 0.5 (≈ 0.616 µM) | 0.5 (≈ 0.616 µM) | 0.5 (≈ 0.616 µM) | < 0.06 | 0.5 (≈ 0.616 µM) | 0.25 (≈ 0.308 µM) | 0.25 (≈ 0.308 µM) | < 0.06 | – | – | – | – | – | – | – | – | –
CC(C)(O/N=C(\C(=O)N[C@@H]1C(=O)N2C[C@@](C(=O)O)(N3CCN(NC(=O)C(=O)c4ccc(O)c(O)c4Cl)C3=O)S[C@H]12)c1nc(N)sc1Cl)C(=O)O [Example 22, (3R,5R,6R)-6-((Z)-2-(2-amino-5-chlorothiazol-4-yl)-2-(((2-carboxypropan-2-yl)oxy)imino)acetamido)-3-(3-(2-(2-chloro-3,4-dihydroxyphenyl)-2-oxoacetamido)-2-oxoimidazolidin-1-yl)-7-oxo-4-thia-1-azabicyclo[3.2.0]heptane-3-carboxylic acid] | < 0.06 | 0.5 (≈ 0.645 µM) | 0.25 (≈ 0.322 µM) | 0.06 (≈ 0.0774 µM) | 0.5 (≈ 0.645 µM) | 0.5 (≈ 0.645 µM) | 0.06 (≈ 0.0774 µM) | 0.5 (≈ 0.645 µM) | < 0.06 | – | – | – | – | – | – | – | – | –
CC(C)(O/N=C(\C(=O)N[C@@H]1C(=O)N2C[C@@](C(=O)O)(N3CCN(NC(=O)c4cc(Cl)c(O)c(O)c4Cl)C3=O)S[C@H]12)c1csc(N)n1)C(=O)O [Example 83, (3R,5R,6R)-6-((Z)-2-(2-aminothiazol-4-yl)-2-(((2-carboxypropan-2-yl)oxy)imino)acetamido)-3-(3-(2,5-dichloro-3,4-dihydroxybenzamido)-2-oxoimidazolidin-1-yl)-7-oxo-4-thia-1-azabicyclo[3.2.0]heptane-3-carboxylic acid] | 0.5 (≈ 0.669 µM) | 1 (≈ 1.34 µM) | 0.5 (≈ 0.669 µM) | 2 (≈ 2.68 µM) | 0.5 (≈ 0.669 µM) | 0.5 (≈ 0.669 µM) | 0.25 (≈ 0.334 µM) | 0.25 (≈ 0.334 µM) | < 0.06 | – | – | – | – | – | – | – | – | –
CC(C)(O/N=C(\C(=O)N[C@@H]1C(=O)N2C[C@@](C(=O)O)(N3CCN(NC(=O)c4c[nH]c5cc(O)c(O)cc5c4=O)C3=O)S[C@H]12)c1csc(N)n1)C(=O)O [Example 154, (3R,5R,6R)-6-((Z)-2-(2-aminothiazol-4-yl)-2-(((2-carboxypropan-2-yl)oxy)imino)acetamido)-3-(3-(6,7-dihydroxy-4-oxo-1,4-dihydroquinoline-3-carboxamido)-2-oxoimidazolidin-1-yl)-7-oxo-4-thia-1-azabicyclo[3.2.0]heptane-3-carboxylic acid] | – | – | – | – | – | – | – | – | – | 0.5 | 4 | 2 | 2 | 0.5 | 4 | 0.25 | 2 | 0.25
